Experiment: Weight of the mice
Format: in vivo
Design: Mean Diff. of weight, vehicle vs. NU-9: unit not given here
Details: for Mean weight (Mean 2): hSOD1G93A-UeGFP mice, in g (unit assumed); for Weight, Average: hSOD1G93A-UeGFP
Experimental: hSOD1^G93A‐UeGFP, prpTDP‐43^A315T‐UeGFP and WT‐UeGFP mice were weighed and the required NU‐9 dose per weight was calculated (20 or 100 mg/kg), which was administered once daily by oral gavage, starting at postnatal day (P)60 and continuing until P120. Animals from the untreated group received the vehicle (NMP and olive oil) only. For oral administration purposes, 20 ga × 38 mm plastic feeding tubes were used (Instech Laboratories, Inc). The gavage tip was inserted into the mouth directly over the tongue and into the pharynx. While observing the swallowing reflex, the tip was safely and smoothly slid into the esophagus. Once the administration was completed, the gavage tip was pulled straight out.
Behavior data were collected from hSOD1^G93A‐UeGFP and WT‐UeGFP mice (starting at P60 and every 7 days until P116) and from prpTDP‐43^A315T‐UeGFP mice (at P60, P90, and P120) with the following number of mice for each group: WT‐UeGFP vehicle (n = 10), hSOD1^G93A‐UeGFP vehicle (n = 6), WT‐UeGFP 20 mg/kg/day NU‐9 (n = 5), hSOD1^G93A‐UeGFP 20 mg/kg/day NU‐9 (n = 7), WT‐UeGFP 100 mg/kg/day NU‐9 (n = 11), hSOD1^G93A‐UeGFP 100 mg/kg/day NU‐9 (n = 9), prpTDP‐43^A315T‐UeGFP untreated (n ≥ 3), and prpTDP‐43^A315T‐UeGFP 100 mg/kg/day NU‐9 (n = 4) (Table S3).

C[C@H](Oc1cc(C(F)(F)F)cc(C(F)(F)F)c1)C1CC(=O)CC(=O)C1 [NU‐9]
Mean Diff. of weight, vehicle vs. NU-9 (hSOD1G93A-UeGFP (vehicle) vs. hSOD1G93A-UeGFP (NU-9 20 mg/kg/day), P60, Tukey's multiple comparisons test): 0.6667 | Mean Diff. of weight, vehicle vs. NU-9 (hSOD1G93A-UeGFP (vehicle) vs. hSOD1G93A-UeGFP (NU-9 20 mg/kg/day), P67, Tukey's multiple comparisons test): 0.6429 | Mean Diff. of weight, vehicle vs. NU-9 (hSOD1G93A-UeGFP (vehicle) vs. hSOD1G93A-UeGFP (NU-9 20 mg/kg/day), P74, Tukey's multiple comparisons test): 0.2381 | Mean Diff. of weight, vehicle vs. NU-9 (hSOD1G93A-UeGFP (vehicle) vs. hSOD1G93A-UeGFP (NU-9 20 mg/kg/day), P81, Tukey's multiple comparisons test): 0.5952 | Mean Diff. of weight, vehicle vs. NU-9 (hSOD1G93A-UeGFP (vehicle) vs. hSOD1G93A-UeGFP (NU-9 20 mg/kg/day), P88, Tukey's multiple comparisons test): 0.2857 | Mean Diff. of weight, vehicle vs. NU-9 (hSOD1G93A-UeGFP (vehicle) vs. hSOD1G93A-UeGFP (NU-9 20 mg/kg/day), P95, Tukey's multiple comparisons test): 0.7619 | Mean Diff. of weight, vehicle vs. NU-9 (hSOD1G93A-UeGFP (vehicle) vs. hSOD1G93A-UeGFP (NU-9 20 mg/kg/day), P102, Tukey's multiple comparisons test): 0.5714 | Mean Diff. of weight, vehicle vs. NU-9 (hSOD1G93A-UeGFP (vehicle) vs. hSOD1G93A-UeGFP (NU-9 20 mg/kg/day), P109, Tukey's multiple comparisons test): 0.4762 | Mean Diff. of weight, vehicle vs. NU-9 (hSOD1G93A-UeGFP (vehicle) vs. hSOD1G93A-UeGFP (NU-9 20 mg/kg/day), P116, Tukey's multiple comparisons test): -0.1429 | Mean Diff. of weight, vehicle vs. NU-9 (hSOD1G93A-UeGFP (vehicle) vs. hSOD1G93A-UeGFP (NU-9 100 mg/kg/day), P60, Tukey's multiple comparisons test): 1.222 | Mean Diff. of weight, vehicle vs. NU-9 (hSOD1G93A-UeGFP (vehicle) vs. hSOD1G93A-UeGFP (NU-9 100 mg/kg/day), P67, Tukey's multiple comparisons test): 1.167 | Mean Diff. of weight, vehicle vs. NU-9 (hSOD1G93A-UeGFP (vehicle) vs. hSOD1G93A-UeGFP (NU-9 100 mg/kg/day), P74, Tukey's multiple comparisons test): 0.2222 | Mean Diff. of weight, vehicle vs. NU-9 (hSOD1G93A-UeGFP (vehicle) vs. hSOD1G93A-UeGFP (NU-9 100 mg/kg/day), P81, Tukey's multiple comparisons test): 0.7222 | Mean Diff. of weight, vehicle vs. NU-9 (hSOD1G93A-UeGFP (vehicle) vs. hSOD1G93A-UeGFP (NU-9 100 mg/kg/day), P88, Tukey's multiple comparisons test): 0.1111 | Mean Diff. of weight, vehicle vs. NU-9 (hSOD1G93A-UeGFP (vehicle) vs. hSOD1G93A-UeGFP (NU-9 100 mg/kg/day), P95, Tukey's multiple comparisons test): 0.1111 | Mean Diff. of weight, vehicle vs. NU-9 (hSOD1G93A-UeGFP (vehicle) vs. hSOD1G93A-UeGFP (NU-9 100 mg/kg/day), P102, Tukey's multiple comparisons test): 0 | Mean Diff. of weight, vehicle vs. NU-9 (hSOD1G93A-UeGFP (vehicle) vs. hSOD1G93A-UeGFP (NU-9 100 mg/kg/day), P109, Tukey's multiple comparisons test): 0.5556 | Mean Diff. of weight, vehicle vs. NU-9 (hSOD1G93A-UeGFP (vehicle) vs. hSOD1G93A-UeGFP (NU-9 100 mg/kg/day), P116, Tukey's multiple comparisons test): 0.1111 | Mean weight (Mean 2) (NU-9 20 mg/kg/day, P60): 17 | Mean weight (Mean 2) (NU-9 20 mg/kg/day, P67): 16.86 | Mean weight (Mean 2) (NU-9 20 mg/kg/day, P74): 16.43 | Mean weight (Mean 2) (NU-9 20 mg/kg/day, P81): 16.57 | Mean weight (Mean 2) (NU-9 20 mg/kg/day, P88): 16.71 | Mean weight (Mean 2) (NU-9 20 mg/kg/day, P95): 16.57 | Mean weight (Mean 2) (NU-9 100 mg/kg/day, P60): 16.44 | Mean weight (Mean 2) (NU-9 100 mg/kg/day, P67): 16.33 | Mean weight (Mean 2) (NU-9 100 mg/kg/day, P74): 16.44 | Mean weight (Mean 2) (NU-9 100 mg/kg/day, P81): 16.44 | Mean weight (Mean 2) (NU-9 100 mg/kg/day, P88): 16.89 | Mean weight (Mean 2) (NU-9 100 mg/kg/day, P95): 17.22 | Weight, Average (NU-9 20 mg/kg/day po, P60): 17 g | Weight, Average (NU-9 20 mg/kg/day po, P67): 16.8571 g | Weight, Average (NU-9 20 mg/kg/day po, P74): 16.4286 g | Weight, Average (NU-9 20 mg/kg/day po, P81): 16.5714 g | Weight, Average (NU-9 20 mg/kg/day po, P88): 16.7143 g | Weight, Average (NU-9 20 mg/kg/day po, P95): 16.5714 g | Weight, Average (NU-9 20 mg/kg/day po, P102): 16.4286 g | Weight, Average (NU-9 20 mg/kg/day po, P109): 16.8571 g | Weight, Average (NU-9 20 mg/kg/day po, P116): 17.1429 g | Weight, Average (NU-9 100 mg/kg/day po, P60): 16.4444 g | Weight, Average (NU-9 100 mg/kg/day po, P67): 16.3333 g | Weight, Average (NU-9 100 mg/kg/day po, P74): 16.4444 g | Weight, Average (NU-9 100 mg/kg/day po, P81): 16.4444 g | Weight, Average (NU-9 100 mg/kg/day po, P88): 16.8889 g | Weight, Average (NU-9 100 mg/kg/day po, P95): 17.2222 g | Weight, Average (NU-9 100 mg/kg/day po, P102): 17 g | Weight, Average (NU-9 100 mg/kg/day po, P109): 16.7778 g | Weight, Average (NU-9 100 mg/kg/day po, P116): 16.8889 g
